Data set [1] is described as follows: Pharmacokinetics study in mice, single oral dose. The settings on record: mouse; male ICR mice, single-dose oral administration of 30 mg/kg, plasma. Format: in vivo. The protocol: A pharmacokinetics (PK) study was performed using male ICR mice to compare the oral absorption properties of the present compounds with tolvaptan. A test compound was suspended in a 1% hydroxypropyl methylcellulose (HPMC) solution to be adjusted to the concentration of 4.5 mg/mL. The present compounds were used as the forms obtained in the above examples (including the amorphous form) for a test compound, or used after spray drying, if needed.
Male ICR mice (7-week old) were freely fed food and water and weighed on an electronic scale. Then, a test compound was orally administered at the dose of 30 mg/kg […]. After the oral administration, blood was collected from the abdominal vena cava under isoflurane anesthesia using a 1 mL heparinized syringe with a 26 G injection needle. Blood was separated by centrifugation at 4° C., 3000 rpm for 10 minutes to give plasma in a supernatant. The plasma concentration of a test compound was measured by LC-MS/MS.
The following PK parameters were calculated using the mean plasma concentrations of unchanged substances obtained from two animals at each time point.
Cmax: Maximum plasma concentration (μg/mL)
tmax: Time-to-maximum plasma concentration (h)
AUCinf: Area under the plasma concentration-time curve from administration to infinite time (μg h/mL)

Data set [2] can be described thus: Metabolic stability test in human liver microsomes. Type of data set: in vitro ADME. The settings on record: pH 7.4; human liver microsomes 1 mg/mL, test compound 1 μmol/L, NADPH and NADH, 37° C., n = 4; read-out: CLint (μL/min/mg) mean ± SD. The protocol:
Reaction System and Incubation
According to methods of Obach and Jones, et al. (methods described in R. S. Obach, Drug Metab. Dispos. 1999 (27): 1350-1359 and H. Jones and J. B. Houston, Drug Metab. Dispos. 2004 (32): 973-982), the reaction system shown below was prepared and metabolic stabilities of test compounds (the present compounds and, tolvaptan) were evaluated using the reaction system shown below. Human liver microsomes purchased from Corning Inc. were used. Test compounds were dissolved in DMSO at the concentration of 10 mmol/L and then diluted with acetonitrile to prepare a 100 μmol/L solution for use in the test. The 100 μmol/L solutions were used in the experiment.
Human liver microsome 1 mg/mL
Co-factor (NADPH and NADH) 1 mmol/L each
Magnesium chloride 5 mmol/L
100 mmol/L Potassium phosphate buffer (pH 7.4)
The reaction mixture without co-factors was pre-incubated at 37° C. for 5 minutes, and then the reaction was initiated by the addition of the co-factors. The mixture was incubated for 0, 5, 10, 20, 30, and 60 minutes after the addition of the co-factors. An aliquot of the reaction mixture was removed and added to a methanol solution containing an internal standard (IS) and mixed to terminate the reaction at each predetermined time.
After the reaction was terminated, the mixture was separated by centrifugation and the supernatant was injected into a liquid chromatograph-tandem mass spectrometer (LC-MS/MS) to measure unchanged substances remained in the reaction system. The mass spectrometer was operated in a positive ion mode of the electrospray ionization (ESI) method. Unchanged substances and the IS were detected by multiple reaction monitoring (MRM) transitions using selected precursor and product ions set.
The remaining ratios of test compounds were calculated by the following equation. Remaining ratio=(Peak area ratio of a test compound to IS at t minutes after incubation)÷(Peak area ratio of a test compound to IS at 0 minute)
The slope of X-axis (the incubation time) and Y-axis (logarithm of the remaining ratio) was calculated by a non-linear least square method. Hepatic intrinsic clearance (CLint) was calculated by the following equation. CLint(μL/min/mg)=−(Slope(min^−1))÷1(mg/mL)×1000
For orientation: Liver microsomes are a subcellular fraction often used to study metabolism.

For data set [3], the target named is T1, rat vasopressin V2 receptor (Rattus norvegicus, UniProt Q00788).
T1 construct: expressed in transfected cells; host or cells: CHO cells (rV2R-CHO)
T1 sequence (Q00788 whole entry): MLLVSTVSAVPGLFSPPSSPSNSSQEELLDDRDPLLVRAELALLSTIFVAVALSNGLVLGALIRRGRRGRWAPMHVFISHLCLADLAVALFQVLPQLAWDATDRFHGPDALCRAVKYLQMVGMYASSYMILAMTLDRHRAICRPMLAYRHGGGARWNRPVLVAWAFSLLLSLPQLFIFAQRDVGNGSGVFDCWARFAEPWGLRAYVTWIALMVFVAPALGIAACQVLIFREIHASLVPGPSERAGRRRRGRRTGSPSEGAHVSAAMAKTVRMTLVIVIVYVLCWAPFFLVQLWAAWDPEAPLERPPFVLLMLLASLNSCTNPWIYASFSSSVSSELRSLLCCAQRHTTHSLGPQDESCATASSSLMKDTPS
The data set is described as follows: Binding inhibition test for rat V2 receptor (3H-AVP, rV2R-CHO cells). Conditions: inhibition of 3H-AVP binding, 4° C., 2 hours, read-out: Binding affinity rV2 (IC50). As for the experimental part: (§1) Various compounds were studied in binding affinities for vasopressin receptors with an indicator of binding inhibition of rat vasopressin V1a receptor and vasopressin V2 receptor of ^3H-arginine vasopressin (AVP) (NET800, available from PerkinElmer Inc., Life Sciences).
(2) Binding Inhibition Test for Rat V2 Receptor (rV2R)
Rat V2 receptor-expressed CHO cells (rV2R—CHO) were incubated on 10% FBS-containing DMEM/F12 in a 24-well plate, and each cell was washed with D-PBS twice. A reaction solution (D-PBS containing 0.1% BSA and 0.05% sodium azide) comprising a compound in various concentrations (0.3 nM to 100 nM) was added to each well, and a certain amount of ^3H-AVP was added thereto (100-fold dilution). Reactions were carried out at 4° C. for 2 hours on the plate. Then, each well was washed with D-PBS twice and 0.1N NaOH was added to each well. The cells were collected, and the radioactivity of ^3H-AVP was measured with a scintillation counter.
(§2) ^3H-AVP binding rate in the presence of a compound was calculated by the following equation. Binding rate (%)=(B−NSB)/(TB−NSB)×100 (B: Binding amount of ^3H-AVP in the presence of each compound, NSB: Binding amount of ^3H-AVP in the presence of 1 μM of unlabeled AVP, TB: Binding amount of ^3H-AVP in the absence of 1 μM of unlabeled AVP)

The target in data set [4] is T2, rat vasopressin V1a receptor (Rattus norvegicus, UniProt P30560).
T2 construct: V1a receptor fractions derived from rat hepatic membrane; from tissue; host or cells: rat liver (hepatic membrane)
T2 sequence (P30560 whole entry): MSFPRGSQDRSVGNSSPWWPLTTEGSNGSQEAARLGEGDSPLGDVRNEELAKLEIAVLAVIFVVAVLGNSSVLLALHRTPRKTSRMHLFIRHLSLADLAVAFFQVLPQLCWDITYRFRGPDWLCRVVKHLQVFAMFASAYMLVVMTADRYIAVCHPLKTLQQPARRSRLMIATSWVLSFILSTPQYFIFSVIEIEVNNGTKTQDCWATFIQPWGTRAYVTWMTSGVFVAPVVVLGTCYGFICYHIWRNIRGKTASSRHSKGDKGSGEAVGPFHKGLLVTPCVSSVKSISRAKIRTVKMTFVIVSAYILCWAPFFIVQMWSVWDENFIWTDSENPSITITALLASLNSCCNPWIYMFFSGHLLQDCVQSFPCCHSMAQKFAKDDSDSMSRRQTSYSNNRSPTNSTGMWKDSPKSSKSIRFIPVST
The data set is described as follows: Binding inhibition test for rat V1a receptor (3H-AVP, rat hepatic membrane). Conditions: inhibition of 3H-AVP binding, rat hepatic membrane V1a receptor fractions, 4° C., 2 hours; read-out: Binding affinity rV1a (IC50). As for the experimental part:
as §1
(1) Binding Inhibition Test for Rat V1a Receptor (rV1aR)
50 μg of V1a receptor fractions derived from rat hepatic membrane were diluted with a reaction solution (100 mM Tris-HCl (pH 8.0), 0.1% BSA, 5 mM MgCl2, 1 mM EDTA) and added to each well of a 96-well plate. A compound was added to each well in various concentrations (0.3 nM to 100 nM), and ^3H-AVP was added thereto in the range of 1 nM to 3 nM. Reactions were carried out at 4° C. for 2 hours on the plate. Via receptor fractions were collected with a 96-well glass filter (Unifilter GF/B) after the reactions and washed with a washing solution (10 mM Tris-HCl (pH 8.0), 5 mM MgCl2, 1 mM EDTA) three times, and then the radioactivity of ^3H-AVP was measured with a scintillation counter.
as §2

The values below come from patent publication US11673878B2, “Benzazepine derivatives” (OTSUKA PHARMACEUTICAL CO., LTD., priority 2017, dated 2023).

Broadly, the AUC(0-inf) is the area under the concentration-time curve extrapolated to infinity. Read a high AUC(0-inf) as high exposure. The term Cmax denotes the maximum level reached in the sampled fluid or tissue. For orientation: Tmax means the time from dosing to the highest level. One may read the IC50 as the concentration that gives 50% inhibition.

Take `O=C(Nc1ccc(C(=O)N2CCC(F)(F)[C@](O)(CO)c3cc(Cl)ccc32)cn1)c1cccnc1-c1ccccc1` [Example 97, N-{5-[(5R)-7-chloro-4,4-difluoro-5-hydroxy-5-(hydroxymethyl)-2,3,4,5-tetrahydro-1H-1-benzazepine-1-carbonyl]pyridin-2-yl}-2-phenylpyridine-3-carboxamide]: in data set [1], the AUC(0-inf) was determined as 8310 ng·h/mL, the highest level (Cmax) was 3130 ng/mL and the Tmax was determined as 1 h. In data set [2], the microsomal CLint at 1 μmol/L stood at 6.98 ± 4.77 µL/min/mg. In addition, the IC50 in data set [3] came out at 1.4 nM. Besides, the IC50 in data set [4] was determined as 5.4 nM.

In the case of `O=C(Nc1ccc(C(=O)N2CCC(F)(F)[C@](O)(CO)c3cc(Cl)ccc32)cc1F)c1cc(F)ccc1Cl` [Example 24, 2-chloro-N-{4-[(5R)-7-chloro-4,4-difluoro-5-hydroxy-5-(hydroxymethyl)-2,3,4,5-tetrahydro-1H-1-benzazepine-1-carbonyl]-2-fluorophenyl}-5-fluorobenzamide], in data set [1], the AUC(0-inf) turned out to be 44000 ng·h/mL, the highest level (Cmax) was 4080 ng/mL and the Tmax was 4 h. Besides, the microsomal CLint at 1 μmol/L in data set [2] is less than 4 µL/min/mg. Also, the IC50 in data set [3] was 1.5 nM. Also, the IC50 in data set [4] was 2.7 nM.

As to `O=C(Nc1ccc(C(=O)N2CCC(F)(F)[C@](O)(CO)c3cc(Cl)ccc32)cc1)c1cc(F)ccc1Cl` [Example 23, 2-chloro-N-{4-[(5R)-7-chloro-4,4-difluoro-5-hydroxy-5-(hydroxymethyl)-2,3,4,5-tetrahydro-1H-1-benzazepine-1-carbonyl]phenyl}-5-fluorobenzamide], in data set [1], the AUC(0-inf) is 71300 ng·h/mL, the concentration peaked (Cmax) at 5420 ng/mL and the Tmax is 4 h. For the same compound, in data set [2], the microsomal CLint at 1 μmol/L came to 1.11 ± 2.21 µL/min/mg. The IC50 in data set [3] turned out to be 1 nM. Besides, the IC50 in data set [4] came to 2.6 nM.

As for `O=C(Nc1ccc(C(=O)N2CCC(F)(F)[C@](O)(CO)c3cc(Cl)ccc32)cn1)c1ccccc1-c1ccccc1` [Example 63, N-{5-[(5R)-7-chloro-4,4-difluoro-5-hydroxy-5-(hydroxymethyl)-2,3,4,5-tetrahydro-1H-1-benzazepine-1-carbonyl]pyridin-2-yl}-[1,1′-biphenyl]-2-carboxamide], in data set [1], the AUC(0-inf) was found to be 14400 ng·h/mL, the Cmax is 4440 ng/mL and the Tmax is 1 h. For the same compound, the microsomal CLint at 1 μmol/L in data set [2] came to 3.1 ± 3.58 µL/min/mg. In addition, the IC50 in data set [3] was determined as 1.1 nM. Besides, the IC50 in data set [4] is 1.4 nM.

With `O=C(Nc1ccc(C(=O)N2CCC(F)(F)[C@](O)(CO)c3cc(Cl)ccc32)cc1F)c1cc(F)ccc1C(F)F` [Example 157, N-{4-[(5R)-7-chloro-4,4-difluoro-5-hydroxy-5-(hydroxymethyl)-2,3,4,5-tetrahydro-1H-1-benzazepine-1-carbonyl]-2-fluorophenyl}-2-(difluoromethyl)-5-fluorobenzamide], in data set [1], the AUC(0-inf) worked out at 80500 ng·h/mL, the highest level (Cmax) was 6210 ng/mL and the Tmax was 1 h. In data set [2], the microsomal CLint at 1 μmol/L is less than 4 µL/min/mg. Further, the IC50 in data set [3] is 3.2 nM. In addition, the IC50 in data set [4] was determined as 12 nM.

In the case of `O=C(Nc1ccc(C(=O)N2CCC(F)(F)[C@](O)(CO)c3cc(Cl)ccc32)cc1)c1cc(F)ccc1C(F)(F)F` [Example 127, N-{4-[(5R)-7-chloro-4,4-difluoro-5-hydroxy-5-(hydroxymethyl)-2,3,4,5-tetrahydro-1H-1-benzazepine-1-carbonyl]phenyl}-5-fluoro-2-(trifluoromethyl)benzamide], in data set [1], the AUC(0-inf) is 93800 ng·h/mL, the peak level (Cmax) was 7950 ng/mL and the time to peak (Tmax) is 1 h. Moreover, the microsomal CLint at 1 μmol/L in data set [2] was less than 4 µL/min/mg. Moreover, the IC50 in data set [3] was determined as 1.8 nM. Moreover, in data set [4], the IC50 is 7.2 nM.

Take `O=C(Nc1ccc(C(=O)N2CCC(F)(F)[C@](O)(CO)c3cc(Cl)ccc32)cn1)c1ccc(Cl)cc1Cl` [Example 51, 2,4-dichloro-N-{5-[(5R)-7-chloro-4,4-difluoro-5-hydroxy-5-(hydroxymethyl)-2,3,4,5-tetrahydro-1H-1-benzazepine-1-carbonyl]pyridin-2-yl}benzamide]: in data set [1], the AUC(0-inf) was 53800 ng·h/mL, the highest level (Cmax) was 5070 ng/mL and the Tmax was found to be 1 h. The microsomal CLint at 1 μmol/L in data set [2] is less than 4 µL/min/mg. Besides, the IC50 in data set [3] amounted to 1.7 nM. Moreover, the IC50 in data set [4] turned out to be 16.1 nM.

On to `O=C(Nc1ccc(C(=O)N2CCC(F)(F)[C@](O)(CO)c3cc(Cl)ccc32)cn1)c1cccnc1C(F)(F)F` [Example 66, N-{5-[(5R)-7-chloro-4,4-difluoro-5-hydroxy-5-(hydroxymethyl)-2,3,4,5-tetrahydro-1H-1-benzazepine-1-carbonyl]pyridin-2-yl}-2-(trifluoromethyl)pyridine-3-carboxamide], for which, in data set [1], the AUC(0-inf) was determined as 38300 ng·h/mL, the peak level (Cmax) was 4550 ng/mL and the Tmax stood at 1 h. Besides, the microsomal CLint at 1 μmol/L in data set [2] is less than 4 µL/min/mg. Also, the IC50 in data set [3] turned out to be 3.5 nM. The IC50 in data set [4] was 21.1 nM.

`O=C(Nc1ccc(C(=O)N2CCC(F)(F)[C@](O)(CO)c3cc(Cl)ccc32)cn1)c1cc(F)ccc1Cl` [Example 15, 2-chloro-N-{5-[(5R)-7-chloro-4,4-difluoro-5-hydroxy-5-(hydroxymethyl)-2,3,4,5-tetrahydro-1H-1-benzazepine-1-carbonyl]pyridin-2-yl}-5-fluorobenzamide]: in data set [1], the area under the curve AUC(0-inf) came to 63100 ng·h/mL, the Cmax came out at 6180 ng/mL and the Tmax came out at 1 h. Further, in data set [2], the microsomal CLint at 1 μmol/L is less than 4 µL/min/mg. For the same compound, the IC50 in data set [3] is 1 nM. In data set [4], the IC50 turned out to be 2.9 nM.

`Cc1ccccc1C(=O)Nc1ccc(C(=O)N2CCCC(O)c3cc(Cl)ccc32)c(C)c1` (stereo not shown) [Tolvaptan, reference compound]: in data set [1], the AUC(0-inf) turned out to be 1780 ng·h/mL, the concentration peaked (Cmax) at 682 ng/mL and the Tmax was determined as 1 h. Besides, in data set [2], the microsomal CLint at 1 μmol/L was determined as 105 ± 11 µL/min/mg.
